Assay [1] concerns MPTP-lesioned marmoset model of Parkinson's disease. Put plainly: Mobility, locomotor activity and dyskinesia in MPTP-lesioned marmoset model of Parkinson's disease, combination with L-DOPA. The format is in vivo, Marmosets (Callithrix jacchus). The conditions noted are these: MPTP-lesioned marmosets; for L-DOPA-induced mobility and locomotor activity (reversal of parkinsonism): L-DOPA 8 mg/kg with or without SIB-1893 10 mg/kg (FIG. 3). The procedure: The effect of the mGluR group I (selective for mGlu5) receptor antagonist SIB-1893 in combination with L-DOPA was assessed in the MPTP-lesioned marmoset model of Parkinson's disease. The ability of the traditional anti-parkinsonian agent L-DOPA to alleviate symptoms was compared with the combined therapy.
Marmosets (Callithrix jacchus) (bred in a closed colony at the University of Manchester) are rendered parkinsonian by subcutaneous injection of 2 mg kg^−1 MPTP for 5 consecutive days. The marmosets are allowed to recover for a minimum of 10 weeks until their parkinsonism becomes stable. The degree of activity and disability before and after MPTP treatment is assessed using a combination of scales as described below. Animals are then treated with L-DOPA for at least 3 weeks to prime them to elicit dyskinesia.
1) Activity—a quantitative assessment using computer-based activity monitors was obtained every 5 minutes for the duration of the experiment. p1 2) Parkinsonian disability—non-parametric measures based on the following scales:
Mobility score: 0=no movement, 1=movement of head on the floor of the cage, 2=movement of limbs, but no locomotion, on the floor of the cage, 3=movement of head or trunk on wall of cage or perch, 4=movement of limbs, but no locomotion, on wall of cage or perch, 5=walking around floor of cage or eating from hopper on floor, 6=hopping on floor of cage, 7=climbing onto wall of cage or perch, 8=climbing up and down the walls of the cage or along perch, 9=running, jumping, climbing between cage walls/perch/roof, uses limbs through a wide range of motion and activity.
Dyskinesia score: 0Absent, 1=Mild, fleeting, 2=Moderate, not interfering with normal activity, 3=Marked, at times interfering with normal activity, 4=Severe, continuous, replacing normal activity.
The behavioural tests were assessed every 30 minutes for 4 hours, by post hoc analysis of video-recordings by an observer blinded to the treatment.
The treatments were randomised such that on each day all six marmosets received one of the treatments. […]

Assay [2] concerns reserpine-treated rat model of Parkinson's disease. Put plainly: Locomotion (mobile counts) in reserpine-treated rat model of Parkinson's disease, antagonist combined with chloro-APB or quinpirole. The following applies: for total mobile counts: antagonist 1 mg/kg plus chloro-APB 0.2 mg/kg, versus vehicle plus chloro-APB (FIG. 1). The format is in vivo. The procedure:
The effect of metabotropic glutamate receptor antagonists on the anti-parkinsonian effects of chloro-APB (0.2 mg/kg) or quinpirole (0.1 mg/kg) was assessed in a reserpine-treated rat model of Parkinson's disease.
Male Sprague-Dawley rats were split into two groups A and B. Rats in both groups were rendered parkinsonian by subcutaneous administration of reserpine (3 mg/kg) for 18 hours.
After the 18 hours Group A were treated with either chloro-APB (0.2 mg/kg) or quinpirole (0.1 mg/kg) and then subdivided into groups A1, A2 and A3. These subgroups were additionally administered the following selective metabotropic glutamate receptor antagonists (1 mg/kg):
A1: (RS)-1-Aminoindan-1,5-dicarboxylic acid (AIDA—Group I metabotropic glutamate receptor antagonist);
A2: (2S)-alpha-Ethylglutamic acid (EGLU—Group II metabotropic glutamate receptor antagonist); and
A3: (RS)-alpha-Methylserine-O-phosphate (MSOP—Group III metabotropic glutamate receptor antagonist).
Group B were treated with chloro-APB (0.2 mg/kg) and vehicle for the antagonists only.
The locomotion of the rats in Groups A and B was measured over a one hour period using Benwick locomotor monitors. These locomotion monitors consist of a visually-shielded open-field arena, the perimeter of which is surrounded by a series of infra-red beams arranged at 5 cm intervals. PC-based software (Amlogger) assesses the number of beams broken. The number of beams broken as part of a locomotor movement (mobile counts) or the number of beam breaks while the animal is not locomoting (static counts) were measured. In addition, the system assesses the time for which animals are mobile or static.

Setting [3] is: reserpine-treated Sprague-Dawley rats, one hour.

Here are results for 5 compounds from patent US20030109504A1, “Treatment of movement disorders with metabotropic glutamate receptors antagonist” (priority 2000, published 2003).

The structures appear in SMILES notation. “Also recorded” adds a separate entry of the source.

Take `N[C@@H](Cc1ccc(O)c(O)c1)C(=O)O` [L-DOPA]: the “L-DOPA-induced mobility and locomotor activity (reversal of parkinsonism)” value in assay [1] is recorded as “good anti-parkinsonian action”.

As to `Cc1cccc(C=Cc2ccccc2)n1` [SIB-1893, 2-Methyl-6-(2-phenylethenyl)pyridine], the L-DOPA-induced dyskinesia entry in assay [1] (L-DOPA 8 mg/kg plus SIB-1893 10 mg/kg versus vehicle plus L-DOPA, p<0.05 (FIG. 4)) is recorded as “significantly less severe L-DOPA-induced dyskinesia”. The “L-DOPA-induced mobility and locomotor activity (reversal of parkinsonism)” value in assay [1] was “good anti-parkinsonian action; also recorded: as effective as L-DOPA alone in reversing parkinsonism”.

As for `CC(N)(COP(=O)(O)O)C(=O)O` (racemic) [MSOP, (RS)-alpha-Methylserine-O-phosphate], in assay [2] (setting [3]), the total mobile counts result was “greater than those treated with vehicle and chloro-APB only”.

For the compound `CC[C@](N)(CCC(=O)O)C(=O)O` [EGLU, (2S)-alpha-Ethylglutamic acid], the “mobility (locomotion)” value in assay [2] (reserpine-treated Sprague-Dawley rats, antagonist 1 mg/kg plus quinpirole 0.1 mg/kg, one hour, versus vehicle plus quinpirole (FIG. 2)) is “greater mobility than those treated with vehicle and quinpirole only”.

In the case of `NC1(C(=O)O)CCc2cc(C(=O)O)ccc21` (racemic) [AIDA, (RS)-1-Aminoindan-1,5-dicarboxylic acid], the total mobile counts entry in assay [2] (setting [3]) was “greater than those treated with vehicle and chloro-APB only”. Also, the “efficacy in combination therapy (overall conclusion)” value in assay [2] (reserpine-treated rats, combination with chloro-APB or quinpirole) is given as “particularly effective”.
